Assays:
[1] = biological target: T1, HBV core protein (Cp149) (Hepatitis B virus genotype D subtype ayw, UniProt P03146); assay: HBV capsid assembly by size exclusion chromatography (SEC); assay type: biochemical; conditions: 50 μM compound, 15 μM Cp149, 16 hours at 21° C.
T1 construct: HBV core C-terminally truncated protein (HBV Cp149); made in house

[2] = biological target: T1, HBV core protein (Cp149); assay: HBV capsid assembly by electron microscopy (EM); assay type: biochemical; conditions: 50 μM compound, 15 μM Cp149, negative stain
[3] = test system: HBV genotype D; assay: HBV-infected primary human hepatocytes (PHH); assay type: cell-based, Hepatitis B virus; conditions: for cccDNA establishment in PHH: treatment scheme 1, southern blot
Description: Primary human hepatocytes (PHH) were infected with HBV genotype D produced from HepG2.2.15 cell line on day 1 after plating. Subsequently, the PHH were treated with various concentrations of compounds into 2 different treatment schemes. For treatment scheme 1, the compounds were added into PHH simultaneously with infection media, and incubated for additional 6 days. For treatment scheme 2, the compounds were added into PHH at day 3 after infection, and further incubated for 6 days. After treatment, the cell culture supernatants were collected for the determinations of HBV DNA by qPCR, pgRNA by RT-PCR, HBsAg and HBeAg by ELISA, and cell viability by CCK-8. The cells were harvested for detection of intracellular cccDNA by southern blot.

[4] = biological target: T2, HBV capsid (Hepatitis B virus genotype D subtype ayw, UniProt P03146); assay: Mechanistic study in stably HBV expressed HepG2.2.15 cells (capsid, encapsidated DNA/RNA, core protein blots); assay type: cell-based; conditions: HepG2.2.15, 6 days; for HBV capsid (formation of DNA- and RNA-devoid capsid): various concentrations; for Intracellular HBV core protein level: western blot
T2 construct: expressed in transfected cells; host or cells: HepG2.2.15
Description: The stably HBV expressed HepG2.2.15 cells were treated with test compounds, at various concentrations in culture medium, at 37° C. for three days. After that the medium was removed and fresh medium containing the compound was added to the cells for another 3 days. After 6 days of treatment, cellular lysates from the treated cells were assessed by non-denatured agarose gel electrophoresis. HBV capsid was detected by western blot with monoclonal anti-HBV core. Encapsidated HBV DNA and RNA were detected by southern blot and northern blot. Intracellular HBV core protein was assessed by western Blot with a monoclonal mouse anti-HBV core. β-actin protein assessed by western blot was used as an internal control.

[5] = test system: HBV; assay: Effect on intrahepatic HBV DNA levels in HepG2.2.15 cells (EC50); assay type: cell-based; conditions: Hepatitis B virus, 144 h, 6 days, intrahepatic HBV DNA by qPCR, read-out: Anti-HBV DNA (EC50)
Description: HepG2.2.15 cells were treated with compounds, at various concentrations in 10% FCS containing medium, at 37° C. for three days. After that the medium was removed and fresh medium containing the compound was added to the cells for another 3 days. After 6 days of treatment, intrahepatic HBV DNA from cell lysates were isolated. Then qPCR reaction of DNA was performed to measure total HBV DNA levels using specific primer set. The fifty-percent effective concentrations (EC50) for HBV DNA inhibition, relative to no drug controls, was determined using nonlinear fitting curve model. EC50 ranges for HBV DNA inhibition were as follows: A>0.3 μM, B=0.05-0.3 μM, C<0.05 μM (Table B).

[6] = Cytotoxicity (MTT) in HepG2.2.15 cells; assay type: cell-based; conditions: human, 6 days treatment, read-out: HepG2.1.15 cytotoxicity (CC50)
Description: HepG2.2.15 cells were seeded onto 96-well culture plate and allowed to adhere for 24 hours. The cells were treated with various concentrations of the compounds for 6 days. After treatment, the culture media were discarded and further incubated with serum-free media containing […] of 3-(4,5-dimethylthiazol-2-yl)-2,5-diphenyl tetrazolium bromide (MTT) for 2 hour. The resulting formazan crystals were completely dissolved in dimethyl sulfoxide (DMSO), and then measured absorbance at 570 nm using microplate reader. The concentrations of compounds producing 50% cell death (CC50) were determined from a fitting of concentration-response curve (% cell viability versus concentration) to a four-parameter equation.

[7] = test system: HBV; assay: In vitro anti-HBV activity in HepG2.2.15 cell line (intracellular HBV DNA by qPCR at 1 μM); assay type: cell-based; conditions: Hepatitis B virus, 144 h; HepG2.2.15 cells, 1 μM compound, 6 days, intracellular HBV DNA as percentage compared to vehicle control (0.5% DMSO)
Method in brief: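 Intracellular HBV DNA was quantified by qPCR and given as percent of vehicle (0.5% DMSO), grouped into letter ranges. Stably transfected HepG2.2.15 cells had 6 days of exposure to 1 μM compound, with medium and compound renewed after day 3.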

[8] = Pharmacokinetic study in rats; assay type: in vivo, male Sprague-Dawley rats; conditions: for F (%) Rat: PO 0.3 to 2.0 mg/kg; for clearance / Vd / half-life: male, Sprague-Dawley, plasma, rat; for clearance / Vd / CL (mL/min/kg) Rat: IV 0.2 to 0.5 mg/kg; for clearance: read-out: CL (mL/min/kg) Rat; for Vd: read-out: Vd,ss (L/kg) Rat; for half-life: read-out: t1/2 (h) Rat (converted)
Description: (§1) Test compounds were administered to male Sprague-Dawley rats and male Beagle dogs by oral (PO) and intravenous (TV) administration. For TV dosing, test compounds were dosed at 0.2 to 0.5 mg/kg using a formulation of 10% dimethyl sulfoxide in 20% hydroxypropyl beta-cyclodextrin solution via IV bolus. For PO dosing, test compounds were dosed at 0.3 to 2.0 mg/kg using a formulation of 40% polyethylene glycol 400 in water via oral gavage. Blood samples were collected at pre-dose and various time points up to 24 hours post-dose, and centrifuged to obtain plasma samples. The plasma concentrations of test compounds were quantified by LC-MS/MS methods. The relevant pharmacokinetic parameters (Table D) were calculated via non-compartmental analysis using WinNonlin (Phoenix™, version 8.3).

[9] = Pharmacokinetic study in dogs; assay type: in vivo, male Beagle dogs; conditions: for F (%) Dog: PO 0.3 to 2.0 mg/kg; for half-life / clearance / Vd: male, Beagle, dog, plasma; for half-life: read-out: t1/2 (h) Dog (converted); for clearance / Vd: IV 0.2 to 0.5 mg/kg; for clearance: read-out: CL (mL/min/kg) Dog; for Vd: read-out: Vd,ss (L/kg) Dog
Description: as §1

T1 sequence (P03146 1-149): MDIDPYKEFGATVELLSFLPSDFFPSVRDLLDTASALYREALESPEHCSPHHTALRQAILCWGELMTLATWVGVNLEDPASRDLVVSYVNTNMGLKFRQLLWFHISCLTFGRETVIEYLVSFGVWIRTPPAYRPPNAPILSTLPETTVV
T2 sequence (P03146 whole entry): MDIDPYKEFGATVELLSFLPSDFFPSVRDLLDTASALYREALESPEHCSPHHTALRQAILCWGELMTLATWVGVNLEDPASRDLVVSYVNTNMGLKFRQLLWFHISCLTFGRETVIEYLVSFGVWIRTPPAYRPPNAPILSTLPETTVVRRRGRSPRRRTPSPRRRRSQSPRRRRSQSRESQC

Compound | Size of induced capsids based on SEC retention times [1] | Capsid morphology by EM [2] | HBV capsid (formation of DNA- and RNA-devoid capsid) [4] | Intracellular HBV core protein level [4] | EC50 [5] [µM] | CC50 at 6 days [6] [µM] | activity at 1 µM [7] [%] | F (%) Rat [8] [%] | clearance [8] [mL/min/kg] | Vd [8] [L/kg] | half-life [8] [h] | also measured
COC(=O)C1=C(C)NC(c2ncc(F)cc2F)=N[C@H]1c1ccc(F)cc1Cl [BAY 41-4109, reference compound] | larger in size, as compared to NVR 3-778 | the capsids appeared larger and misassembled with an irregular shape |  |  |  |  |  |  |  |  |  | Formation of capsids (SEC) [1]: increased the formation of capsids
C=C1[C@H](CO)[C@@H](O)C[C@@H]1n1cnc2c(=O)[nH]c(N)nc21 [Entecavir, entecavir, reference compound] |  |  | had no effects | had no effects |  |  |  |  |  |  |  | cccDNA establishment in PHH [3]: had no effect on cccDNA establishment
C[C@H]1[C@@H](C(=O)Nc2cc(F)c(F)c(F)c2)CCN1C(=O)c1[nH]c2ccccc2c1Cl [Example 42, (2S,3S)-1-(3-chloro-1H-indole-2-carbonyl)-2-methyl-N-(3,4,5-trifluorophenyl)pyrrolidine-3-carboxamide] | capsid retention times between BAY 41-4109 and NVR 3-778 | resulted in larger but normal shape spheres | dose-dependently accelerated formation of DNA- and RNA-devoid capsid | had no effect on intracellular HBV core protein level | 0.05 to 0.3 | > 25 | < 45 |  |  |  |  | HBeAg in PHH ([3]; treatment scheme 1): inhibited; HBsAg in PHH ([3]; treatment scheme 1): inhibited; HBV DNA in PHH ([3]; treatment scheme 1 (compound added simultaneously with infection media, 6 days)): inhibited; cccDNA establishment in PHH [3]: inhibited
C[C@H]1[C@@H](C(=O)Nc2ccc(F)c(C#N)c2)CCN1C(=O)c1ccc(C2CC2)[nH]1 [Example 74, (2S,3S)—N-(3-cyano-4-fluorophenyl)-1-(5-cyclopropyl-1H-pyrrole-2-carbonyl)-2-methylpyrrolidine-3-carboxamide] | induced capsids similar in size to NVR 3-778 |  |  |  | 0.05 to 0.3 | 10 to 25 | < 45 | ~100 | 3 | 0.72 | 3.4 | 
C[C@H]1[C@@H](C(=O)Nc2cc(F)c(F)c(F)c2)CCN1C(=O)c1ccc(-c2ccnnc2)[nH]1 [Example 83, (2S,3S)-2-methyl-1-(5-(pyridazin-4-yl)-1H-pyrrole-2-carbonyl)-N-(3,4,5-trifluorophenyl)pyrrolidine-3-carboxamide] | induced capsids similar in size to NVR 3-778 |  |  |  | < 0.05 | > 25 | < 45 | 82 | 0.3 | 0.13 | 5.5 | 
Cc1ncnc(C)c1-c1ccc(C(=O)N2CC[C@H](C(=O)Nc3cc(F)c(F)c(F)c3)C2)[nH]1 [Example 85, (S)-1-(5-(4,6-dimethylpyrimidin-5-yl)-1H-pyrrole-2-carbonyl)-N-(3,4,5-trifluorophenyl) pyrrolidine-3-carboxamide] | induced capsids similar in size to NVR 3-778 |  |  |  | < 0.05 | 10 to 25 | < 45 |  |  | 2.88 | 3.6 | CL (mL/min/kg) Rat [8]: 15.2 mL/min/kg; F (%) Dog [9]: ~100%; half-life [9]: 6.2 h; clearance [9]: 4.4 mL/min/kg; Vd [9]: 1.64 L/kg
Cc1ncnc(C)c1-c1ccc(C(=O)N2CC[C@H](C(=O)Nc3ccc(F)c(Cl)c3)C2)[nH]1 [Example 99, (S)—N-(3-chloro-4-fluorophenyl)-1-(5-(4,6-dimethylpyrimidin-5-yl)-1H-pyrrole-2-carbonyl) pyrrolidine-3-carboxamide] | induced capsids similar in size to NVR 3-778 |  |  |  | < 0.05 | 10 to 25 | < 45 | 36 | 38.4 | 2.34 | 1 | 
Cc1ncnc(C)c1-c1ccc(C(=O)N2CC[C@H](C(=O)Nc3ccc(F)c(Cl)c3)[C@@H]2C)[nH]1 [Example 104, (2S,3S)—N-(3-chloro-4-fluorophenyl)-1-(5-(4,6-dimethylpyrimidin-5-yl)-1H-pyrrole-2-carbonyl)-2-methylpyrrolidine-3-carboxamide] | induced capsids similar in size to NVR 3-778 | showed similar results as for NVR 3-778 | dose-dependently accelerated formation of DNA- and RNA-devoid capsid | had no effect on intracellular HBV core protein level | < 0.05 | 10 to 25 | < 45 | 66 |  | 1.93 | 1.9 | CL (mL/min/kg) Rat [8]: 12.3 mL/min/kg; F (%) Dog [9]: 53%; half-life [9]: 14.2 h; clearance [9]: 1.5 mL/min/kg; Vd [9]: 1.67 L/kg

Reference: patent US20230391752A1, “PYRROLIDINE-3-CARBOXAMIDE DERIVATIVES AND RELATED USES” (Chulalongkorn University, priority 2020, published 2023)
